Laboratory results published in patent US5843940A, “Benzothiophene compounds, compositions, and method” (Eli Lilly and Company, priority 1997, dated 1998).
Structures can show the parent of a compound that is named as a salt.

Tests used:
[1] = tested on: uterus of ovariectomized rats; test: Uterine weight in ovariectomized rats; type: in vivo, female Sprague Dawley rats; details: for Uterine Weight % Inc (increase versus the ovariectomized controls): daily for 4 days, 5 to 6 rats, * p < .05
Source text: (§1) Seventy-five day old female Sprague Dawley rats (weight range of 200 to 225 g) were obtained from Charles River Laboratories (Portage, Mich.). The animals were either bilaterally ovariectomized (OVX) or exposed to a Sham surgical procedure at Charles River Laboratories, and then shipped after one week. Upon arrival, they were housed in metal hanging cages in groups of 3 or 4 per cage and had ad libitum access to food (calcium content approximately 0.5%) and water for one week. Room temperature was maintained at 22.2°±1.7° C. with a minimum relative humidity of 40%. The photoperiod in the room was 12 hours light and 12 hours dark.
(§2) Dosing Regimen Tissue Collection. After a one week acclimation period (therefore, two weeks post-OVX) daily dosing with test compound was initiated. 17α-ethynyl estradiol or the test compound were given orally, unless otherwise stated, as a suspension in 1% carboxymethylcellulose or dissolved in 20% cyclodextrin. Animals were dosed daily for 4 days. Following the dosing regimen, animals were weighed and anesthetized with a ketamine:xylazine (2:1, V:V) mixture and a blood sample was collected by cardiac puncture. The animals were then sacrificed by asphyxiation with CO2, the uterus was removed through a midline incision, and a wet uterine weight was determined.
(§3) The data presented in Table 1 below reflects the response of 5 to 6 rats per treatment.

Serum cholesterol = Serum cholesterol analysis in ovariectomized rats; type: in vivo, female Sprague Dawley rats; details: for Serum Cholest. % Dec. (decrease versus ovariectomized controls): daily for 4 days, 5 to 6 rats, * p < .05
Source text: as §1, §2
Cholesterol Analysis. Blood samples were allowed to clot at room temperature for 2 hours, and serum was obtained following centrifugation for 10 minutes at 3000 rpm. Serum cholesterol was determined using a Boehringer Mannheim Diagnostics high performance cholesterol assay. Briefly the cholesterol was oxidized to cholest-4-en-3-one and hydrogen peroxide. The hydrogen peroxide was then reacted with phenol and 4-aminophenazone in the presence of peroxidase to produce a p-quinone imine dye, which was read spectrophotemetrically at 500 nm. Cholesterol concentration was then calculated against a standard curve.
as §3

[2] = tested on: Uterine Eosinophil Peroxidase; test: Uterine Eosinophil Peroxidase (EPO) Assay; type: in vivo, female Sprague Dawley rats; details: for Uterine Eosinophil (Vmax), Eosinophil peroxidase Vmax: daily for 4 days, 5 to 6 rats, * p < .05
Source text: as §1, §2
Uterine Eosinophil Peroxidase (EPO) Assay. Uteri were kept at 4° C. until time of enzymatic analysis. The uteri were then homogenized in 50 volumes of 50 mM Tris buffer (pH-8.0) containing 0.005% Triton X-100. Upon addition of 0.01% hydrogen peroxide and 10 mM O-phenylenediamine (final concentrations) in Tris buffer, increase in absorbance was monitored for one minute at 450 nm. The presence of eosonophils in the uterus is an indication of estrogenic activity of a compound. The maximal velocity of a 15 second interval was determined over the initial, linear portion of the reaction curve.
as §3

[3] = tested on: femur density of ovariectomized rats; test: Osteoporosis test, bone density in ovariectomized rats; type: in vivo; details: orally administered, 35 days, in 20% hydroxypropyl β-cyclodextrin
Experimental: Following the General Preparation Procedure, infra, the rats are treated daily for 35 days (6 rats per treatment group) and sacrificed by carbon dioxide asphyxiation on the 36th day. The 35 day time period is sufficient to allow maximal reduction in bone density, measured as described herein. At the time of sacrifice, the uteri are removed, dissected free of extraneous tissue, and the fluid contents are expelled before determination of wet weight in order to confirm estrogen deficiency associated with complete ovariectomy. […] The uteri are then placed in 10% neutral buffered formalin to allow for subsequent histological analysis. The right femurs are excised and digitilized x-rays generated and analyzed by an image analysis program (NIH image) at the distal metaphysis. The proximal aspect of the tibiae from these animals are also scanned by quantitative computed tomography. In accordance with the above procedures, compounds of the instant invention and ethynyl estradiol (EE2) in 20% hydroxypropyl β-cyclodextrin are orally administered to test animals. Distal femur metaphysis and proximal tibiae data are compared to intact and ovariectomized test animals. Results are reported as percent protection relative to ovariectomy.

[4] = tested on: MCF-7 breast adenocarcinoma cells; test: MCF-7 Proliferation Assay (estrogen dependent breast cancer); type: cell-based; details: Homo sapiens, MCF7, versus control (DMSO), tritiated thymidine
Experimental: MCF-7 breast adenocarcinoma cells (ATCC HTB 22) are maintained in MEM (minimal essential medium, phenol-red free, Sigma St.Louis Mo.) supplimented with 10% fetal bovine serum (FBS) (v/v), L-glutamine (2 mM), sodium pyruvate (1 mM), HEPES (10 mM), non-essential amino acids and bovine insulin (1 ug/mL). Ten days prior to the assay, the MCF-7 cells are switched to maintenance medium supplemented with 10% dextrancoated charcoal stripped fetal bovine serum (DCC-FBS) assay medium in place of the 10% FBS to deplete internal stores of estrogen. MCF-7 cells are removed from the maintenance flasks using a cell dissociating medium (Ca/Mg free HBSS (phenol-red free) supplemented with 10 mM HEPES and 2 mM EDTA. Cells are washed twice with the assay medium and adjusted to 80,000 cells/mL. Approximately […] (8,000 cells) are added to a flat-bottomed microculture well (Costar 3596) and incubated at […] in a 5% CO2 humidified incubator for 48 hours to allow cell adherence and equilibrium after transfer. Serial dilutions of the compounds of formula I or DMSO as a diluent control are prepared in assay medium and […] to triplicate microcultures followed by […] for a final volume of […]. After an additional 48 hours of incubation, the microcultures are pulsed with tritiated thymidine ([…]) for 4 hours. Culture are terminated by freezing at -70° C. for 24 hours followed by thawing and harvesting of microcultures using a Skatron Semiautomatic Cell Harvester. Samples are counted by liquid scintillation. Fifty percent inhibitory concentration of the test drugs (IC50) are determined versus the control (DMSO).

| SMILES | Uterine Weight % Inc (increase versus the ovariectomized controls) ([1]; 0.1 mg/kg PO) | Uterine Weight % Inc (increase versus the ovariectomized controls) ([1]; 1.0 mg/kg PO) | Uterine Weight % Inc (increase versus the ovariectomized controls) ([1]; 10.0 mg/kg PO) | Serum Cholest. % Dec. (decrease versus ovariectomized controls) (Serum cholesterol; 0.1 mg/kg PO) | Serum Cholest. % Dec. (decrease versus ovariectomized controls) (Serum cholesterol; 1.0 mg/kg PO) | Serum Cholest. % Dec. (decrease versus ovariectomized controls) (Serum cholesterol; 10.0 mg/kg PO) | Uterine Eosinophil (Vmax), Eosinophil peroxidase Vmax ([2]; 0.1 mg/kg PO) | Uterine Eosinophil (Vmax), Eosinophil peroxidase Vmax ([2]; 1.0 mg/kg PO) | Uterine Eosinophil (Vmax), Eosinophil peroxidase Vmax ([2]; 10.0 mg/kg PO) | uterine weight (in words) ([1]; EE2 orally at 0.1 mg/kg/day, versus ovariectomized test animals) | serum cholesterol (in words) (Serum cholesterol; EE2 orally at 0.1 mg/kg/day) | eosinophil infiltration into the uterus (in words) ([2]; stromal layer of ovariectomized rats) | loss of femur density after ovariectomy [3] | IC50 [4] |
| --- | --- | --- | --- | --- | --- | --- | --- | --- | --- | --- | --- | --- | --- | --- |
| Oc1ccc(-c2sc3cc(O)ccc3c2-c2ccc(OCCN3CCCCC3)cc2)cc1 [Compound A, reference compound] | 24.6% | 64.8% | 41.7% | 45.4% | 68.8% | 65.3% | 21.0 | 49.9 | 55.9 |  |  |  |  |  |
| C#C[C@]1(O)CC[C@H]2[C@@H]3CCc4cc(O)ccc4[C@H]3CC[C@@]21C [EE2, 17α-ethynyl estradiol, reference compound] | 118.6% |  |  | 89.3% |  |  | 234.2 |  |  | substantially greater than the uterine weight of ovariectomized test animals | caused a decrease in serum cholesterol | substantial, expected increase in eosinophil infiltration | prevents this loss |  |
| COc1ccc(-c2sc3cc(OC)ccc3c2-c2cccc(OCCN3CCCCC3)c2)cc1.Cl [Example 1, 2-(4-Methoxyphenyl)-3-[3-[2-(1-piperidinyl)ethoxy]phenyl]-6-methoxybenzo[b]thiophene hydrochloride] | 24% | 37.2% | 68.2% | 25.8% | 56.1% | 71.1% | 7.5 | 22.2 | 103.5 |  |  |  |  |  |
| COc1ccc(-c2sc3cc(OC)ccc3c2-c2cccc(OCCCN3CCCCC3)c2)cc1.Cl [Example 2, 2-(4-Methoxyphenyl)-3-[3-[3-(1-piperidinyl)propoxy]phenyl]-6-methoxybenzo[b]thiophene hydrochloride] | 20.2% | 35.7% | 39.1% | 59.1% | 76.5% | 69.4% | 24.0 | 32.4 | 32.1 |  |  |  |  |  |
| COc1ccc(-c2sc3cc(OC)ccc3c2-c2cccc(OCCCCN3CCCCC3)c2)cc1.Cl [Example 3, 2-(4-Methoxyphenyl)-3-[3-[4-(1-piperidinyl)butoxy]phenyl]-6-methoxybenzo[b]thiophene hydrochloride] | 23.9% | 62.1% | 65.0% | 35.5% | 64.4% | 78.0% | 4.8 | 43.5 | -91.2 |  |  |  |  |  |
| Oc1ccc(-c2sc3cc(O)ccc3c2-c2cccc(OCCN3CCCCC3)c2)cc1 [Example 4, 2-(4--Hydroxyphenyl)-3-[3-[2-(1-piperidinyl)ethoxy]phenyl]-6-hydroxybenzo[b]thiophene hydrochloride] | 9.1% | 5.6% | 78.7% | 33.3% | 57.2% | 81.0% | 4.8 | 4.8 | 103.8 |  |  |  |  | 8 nM |
| Oc1ccc(-c2sc3cc(O)ccc3c2-c2cccc(OCCCN3CCCCC3)c2)cc1 [Example 5] |  |  |  |  |  |  |  |  |  |  |  |  |  | 0.2 nM |
| Oc1ccc(-c2sc3cc(O)ccc3c2-c2cccc(OCCCCN3CCCCC3)c2)cc1 [Example 6, 2-(4--Hydroxyphenyl)-3-[3-(1-piperidinyl)butoxy]phenyl]-6-hydroxybenzo[b]thiophene hydrochloride] |  |  |  |  |  |  |  |  |  |  |  |  |  | 2 nM |
